According to article PMC9471048, “The signaling and selectivity of α‐adrenoceptor agonists for the human α2A, α2B and α2C‐adrenoceptors and comparison with human α1 and β‐adrenoceptors” (Pharmacology Research & Perspectives, 2022):
Like-named read-outs stand apart in the source and are kept apart here.

Assays:
human α2C‐adrenoceptor [1] = molecular target: T1, human α2C‐adrenoceptor (Homo sapiens, UniProt P18825)
T1 sequence (P18825 1-462): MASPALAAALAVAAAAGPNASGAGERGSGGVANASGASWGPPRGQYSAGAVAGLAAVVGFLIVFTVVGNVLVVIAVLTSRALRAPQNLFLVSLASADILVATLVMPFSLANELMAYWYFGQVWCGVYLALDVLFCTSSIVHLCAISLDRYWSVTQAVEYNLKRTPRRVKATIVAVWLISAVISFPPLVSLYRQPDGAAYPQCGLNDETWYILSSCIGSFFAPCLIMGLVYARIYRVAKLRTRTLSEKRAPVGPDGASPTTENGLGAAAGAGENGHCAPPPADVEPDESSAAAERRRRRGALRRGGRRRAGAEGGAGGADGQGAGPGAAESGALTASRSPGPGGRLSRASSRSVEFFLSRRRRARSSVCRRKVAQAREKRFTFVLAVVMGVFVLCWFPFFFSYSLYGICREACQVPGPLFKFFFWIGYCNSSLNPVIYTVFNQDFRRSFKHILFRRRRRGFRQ

human α2C‐adrenoceptor [2] = molecular target: T1, human α2C‐adrenoceptor; assay: 3H‐rauwolscine whole cell binding in CHO‐α2C cells; set-up: expressed in transfected cells; host or cells: CHO-K1 with CRE-SPAP reporter
human α2C‐adrenoceptor [3] = molecular target: T1, human α2C‐adrenoceptor; assay: ERK1/2‐phosphorylation in CHO‐α2C cells; type: cell-based; set-up: expressed in transfected cells; host or cells: CHO-K1 with CRE-SPAP reporter
human α2A‐adrenoceptor [4] = molecular target: T2, human α2A‐adrenoceptor (Homo sapiens, UniProt P08913)
T2 sequence (P08913 1-465): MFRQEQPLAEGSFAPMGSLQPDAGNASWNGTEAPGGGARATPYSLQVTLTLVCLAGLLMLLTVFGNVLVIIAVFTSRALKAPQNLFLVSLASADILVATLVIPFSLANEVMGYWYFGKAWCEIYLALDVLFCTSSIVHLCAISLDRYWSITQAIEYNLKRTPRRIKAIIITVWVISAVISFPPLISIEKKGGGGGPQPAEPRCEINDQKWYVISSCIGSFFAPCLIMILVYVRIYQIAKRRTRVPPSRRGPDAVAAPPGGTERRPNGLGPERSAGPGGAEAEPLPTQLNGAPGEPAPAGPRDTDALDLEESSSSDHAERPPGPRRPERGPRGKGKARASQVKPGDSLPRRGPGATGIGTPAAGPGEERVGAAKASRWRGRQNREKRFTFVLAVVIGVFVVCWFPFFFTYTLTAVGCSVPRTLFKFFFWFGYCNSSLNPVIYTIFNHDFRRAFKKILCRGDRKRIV

human α2A‐adrenoceptor [5] = molecular target: T2, human α2A‐adrenoceptor; assay: 3H‐rauwolscine whole cell binding in CHO‐α2A cells; set-up: expressed in transfected cells; host or cells: CHO-K1 with CRE-SPAP reporter
human α2A‐adrenoceptor [6] = molecular target: T2, human α2A‐adrenoceptor; assay: ERK1/2‐phosphorylation in CHO‐α2A cells; type: cell-based; set-up: expressed in transfected cells; host or cells: CHO-K1 with CRE-SPAP reporter
[7] = CHO‐α2C cells, CRE‐SPAP production in the absence of forskolin
[8] = CHO‐α2C cells, % inhibition from the 3 μM forskolin control, mean ± SEM
[9] = CHO‐α2C cells, inhibition of 3 μM forskolin‐stimulated CRE‐SPAP production, given as negative log IC50, mean ± SEM
[10] = CHO‐α2C cells, 3H‐rauwolscine whole cell binding, given as negative log KD, mean only (SEM in Table 4)
[11] = CHO‐α2C cells, maximum response compared to 10 μM PDBu, mean ± SEM
[12] = CHO‐α2C cells, given as negative log EC50, mean ± SEM

Structure (SMILES)	% inhibition, CRE‐SPAP (with forskolin) (human α2C‐adrenoceptor [1]) [%]	Log EC50 (Gs), CRE‐SPAP (without forskolin) (human α2C‐adrenoceptor [1])	Log IC50 (Gi), CRE‐SPAP (with forskolin) (human α2C‐adrenoceptor [1])	Log efficacy ratio (KD/IC50) (human α2C‐adrenoceptor [1])	% 10 μM PDBu, ERK1/2‐phosphorylation (human α2C‐adrenoceptor [3]) [%]	Log EC50 (Gs), CRE‐SPAP (without forskolin) (human α2C‐adrenoceptor [1]; [7])	% inhibition, CRE‐SPAP (with forskolin) (human α2C‐adrenoceptor [1]; [8]) [%]	Log IC50 (Gi), CRE‐SPAP (with forskolin) (human α2C‐adrenoceptor [1]; [9])	Log KD (human α2C‐adrenoceptor [2]; [10])	% 10 μM PDBu, ERK1/2‐phosphorylation (human α2C‐adrenoceptor [3]; [11]) [%]	Log EC50, ERK1/2‐phosphorylation (human α2C‐adrenoceptor [3]; [12])	also measured
C=CCN1CCc2nc(N)sc2CC1 [BHT920]	86.8 ± 6.0	No response	−7.41 ± 0.10	1.42	144.8 ± 23.2	–	–	–	–	–	–	Log KD (human α2C‐adrenoceptor [2]): −5.99; Log EC50, ERK1/2‐phosphorylation (human α2C‐adrenoceptor [3]): −8.18 ± 0.12
OCc1cc(C(O)CNCCCCCCOCCCCc2ccccc2)ccc1O (centres unmarked) [Salmeterol]	–	–	No response	–	–	No response	–	–	–	–	–	Log EC50 (Gs), CRE‐SPAP (without forskolin) (human α2A‐adrenoceptor [4]; CHO‐α2A (cell line 1), absence of forskolin): No response; Log IC50 (Gi), CRE‐SPAP (with forskolin) (human α2A‐adrenoceptor [4]; CHO‐α2A (cell line 1, 5830 fmol/mg protein), 3 μM forskolin): No response; Kd (human α2A‐adrenoceptor [5]; read-out: Log KD (binding) (converted)): 17400 nM; Kd (human α2C‐adrenoceptor [2]; CHO‐α2C cells, 3H‐rauwolscine whole cell binding, given as negative log KD, mean only (SEM in Table 4), read-out: Log KD (converted)): 5250 nM
CC(C)NCC(O)c1ccc(O)c(O)c1 (centres unmarked) [Isoprenaline]	95.0 ± 5.2	–	–	–	130.7 ± 11.1	–	–	–	–	–	–	–
CC(N)C(O)c1ccc(O)c(O)c1 (stereo not drawn) [α‐methylnorepinephrine]	85.2 ± 3.0	No response	−6.52 ± 0.12	–	–	–	–	–	–	–	–	% 3 μM forskolin, CRE‐SPAP (without forskolin) (human α2A‐adrenoceptor [4]): 171.1 ± 4.3%; Log EC50 (Gs), CRE‐SPAP (with forskolin) (human α2A‐adrenoceptor [4]): −5.31 ± 0.05; Log EC50 (Gs), CRE‐SPAP (without forskolin) (human α2A‐adrenoceptor [4]): −5.29 ± 0.02; Log IC50 (Gi), CRE‐SPAP (with forskolin) (human α2A‐adrenoceptor [4]): −6.47 ± 0.05; Log KD (apparent), CHO‐α2A (human α2A‐adrenoceptor [5]): −3.69 ± 0.04^app; Log KD (binding) (human α2A‐adrenoceptor [5]): −3.69; Log KD (human α2C‐adrenoceptor [2]): −5.16; % 10 μM PDBu, ERK1/2‐phosphorylation (human α2A‐adrenoceptor [6]): 142.6 ± 22.3%
C1=C(c2cnc[nH]2)c2ccsc2CC1 [RWJ52353]	–	–	–	1.80	–	No response	76.5 ± 5.6	−6.47 ± 0.10	−4.67	143.5 ± 14.0	−7.74 ± 0.09	Log KD (apparent), CHO‐α2C (human α2C‐adrenoceptor [2]; 3H‐rauwolscine whole cell binding, ^app: apparent KD, IC50 from extrapolated curve as not all specific binding was inhibited): −4.67 ± 0.08^app
Cc1cccc(C(C)c2cnc[nH]2)c1C (centres unmarked) [Medetomidine]	86.4 ± 2.1	No response	–	–	159.3 ± 16.4	–	–	–	–	–	–	% 3 μM forskolin, CRE‐SPAP (without forskolin) (human α2A‐adrenoceptor [4]): 23.1 ± 4.7%; IC50 (human α2C‐adrenoceptor [1]; Log IC50 (Gi), CRE‐SPAP (with forskolin)): 0.513 nM; Kd (human α2C‐adrenoceptor [2]; read-out: Log KD (converted)): 32.4 nM; Kd (human α2C‐adrenoceptor [2]; read-out: Log KD, CHO‐α2C (converted)): 32.4 nM; % 10 μM PDBu, ERK1/2‐phosphorylation (human α2A‐adrenoceptor [6]): 114.1 ± 9.3%; EC50 (human α2C‐adrenoceptor [3]; read-out: Log EC50, ERK1/2‐phosphorylation (converted)): 0.195 nM
CNC[C@H](O)c1cccc(O)c1 [R‐phenylephrine]	77.5 ± 3.4	–	–	–	157.0 ± 15.4	–	–	–	–	–	–	–
CCN1CCc2nc(N)oc2CC1 [BHT933]	–	–	–	0.62	–	No response	86.0 ± 4.6	−5.94 ± 0.08	−5.32	150.0 ± 19.7	−6.63 ± 0.18	–
CCc1cccc(CC)c1NC1=NCCN1 [ST‐91]	–	–	–	1.28	–	No response	76.5 ± 4.4	−7.46 ± 0.09	−6.18	154.0 ± 15.0	−7.93 ± 0.17	–
